According to patent US20260016464A1, “METHOD FOR CHARACTERIZING, TYPING AND IDENTIFYING CELLS AND USE THEREOF” (Yigong Ruixin (Xiamen) Technology Co., Ltd, priority 2023, published 2026):

Legend:
[1] = system: non-small cell lung cancer cells A549; assay: Cell viability reflected by cellular mechanical force (cellular mechanical force detection device); assay type: cell-based
From the text: This example specifically provides application of cellular physical information acquired by the characterization system for cell/multicellular aggregate interaction described in any one of examples 10 to 12 or the cellular mechanical force detection method described in example 14 in monitoring cell viability.
(§1) Please refer to FIG. 40, FIG. 41 and FIG. 42. FIG. 40 is a schematic diagram of the operation process of the cell viability detection method; FIG. 41 is a comparison diagram of cell viability measured by MTT method and cellular mechanical force measured by the device or system or method of the present invention after A549 cells are treated with different doses of 5FU for 24 h; FIG. 42 is a comparison diagram of cell viability measured by MTT method and cellular mechanical force measured by the device or system or method of the present invention after A549 cells are treated with different doses of 5FU for different times.
(§2) Specifically, in this example, non-small cell lung cancer cells A549 are cultured on multiple cellular mechanical force detection devices, treated with different doses of the cell proliferation inhibitory drug 5-fluorouracil (5-FU), and cellular mechanical force at different time points is monitored by the characterization system for cell/multicellular aggregate interaction described in any one of examples 10 to 12 or the cellular mechanical force detection method described in example 14. Cell proliferation and cytotoxicity at different time points are monitored by CCK-8 kit, and cell viability measured by MTT assay is used as a control group to obtain data in FIGS. 41 and 42.

[2] = system: non-small cell lung cancer cells A549; assay: Cell viability measured by MTT assay (control method); assay type: cell-based
Description: as §1, §2

[3] = different doses and times of treatment (FIGS. 41 and 42)

## O=c1[nH]cc(F)c(=O)[nH]1 [5FU, 5-fluorouracil]
[1]; [3]
  cell viability reflected by the cellular mechanical force: gradually decreasing trend in a dose-dependent manner
[1]; different doses, 24 h, compared with control group DMSO (FIG. 41)
  reduction range of cell viability reflected by mechanical force: larger than that reflected by the traditional MTT assay
[1]; treatment dose of 0.5 μM (FIG. 42)
  time at which a significant decreasing trend of cellular mechanical force can be observed: 6 h
[1]; treatment dose of 1 μM (FIG. 42)
  time at which a significant decreasing trend of cellular mechanical force can be observed: 3 h
[2]; [3]
  cell viability measured by the MTT assay: gradually decreasing trend in a dose-dependent manner
[2]; within 12 h of treatment (FIG. 42)
  change in cell viability measured by the MTT method: not obvious
